Measurements reported in patent publication US8802700B2 (Vertex Pharmaceuticals Incorporated, priority 2010, dated 2014).

Biological target: T1, ΔF508-CFTR (Homo sapiens, UniProt P13569, DEL508-508)
T1 construct: expressed in transfected cells
Test: Membrane potential optical assay (FRET voltage-sensor dyes, VIPR), identification of potentiator compounds
Type: cell-based
Conditions: Table 3, assay not given; for Emax: read-out: % Activity (% Efficacy, relative efficacy)
In short: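 Potentiator screen measured membrane potential via FRET between CC2-DMPE donor and DiSBAC2(3), read on VIPR II. Compound went in with the first addition of chloride-free gluconate bath; cells were ΔF508-CFTR-expressing NIH3T3 mouse fibroblasts, temperature-corrected at 27 °C for 24 h.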

T1 sequence (P13569 with tags, fused parts or gaps DEL508-508): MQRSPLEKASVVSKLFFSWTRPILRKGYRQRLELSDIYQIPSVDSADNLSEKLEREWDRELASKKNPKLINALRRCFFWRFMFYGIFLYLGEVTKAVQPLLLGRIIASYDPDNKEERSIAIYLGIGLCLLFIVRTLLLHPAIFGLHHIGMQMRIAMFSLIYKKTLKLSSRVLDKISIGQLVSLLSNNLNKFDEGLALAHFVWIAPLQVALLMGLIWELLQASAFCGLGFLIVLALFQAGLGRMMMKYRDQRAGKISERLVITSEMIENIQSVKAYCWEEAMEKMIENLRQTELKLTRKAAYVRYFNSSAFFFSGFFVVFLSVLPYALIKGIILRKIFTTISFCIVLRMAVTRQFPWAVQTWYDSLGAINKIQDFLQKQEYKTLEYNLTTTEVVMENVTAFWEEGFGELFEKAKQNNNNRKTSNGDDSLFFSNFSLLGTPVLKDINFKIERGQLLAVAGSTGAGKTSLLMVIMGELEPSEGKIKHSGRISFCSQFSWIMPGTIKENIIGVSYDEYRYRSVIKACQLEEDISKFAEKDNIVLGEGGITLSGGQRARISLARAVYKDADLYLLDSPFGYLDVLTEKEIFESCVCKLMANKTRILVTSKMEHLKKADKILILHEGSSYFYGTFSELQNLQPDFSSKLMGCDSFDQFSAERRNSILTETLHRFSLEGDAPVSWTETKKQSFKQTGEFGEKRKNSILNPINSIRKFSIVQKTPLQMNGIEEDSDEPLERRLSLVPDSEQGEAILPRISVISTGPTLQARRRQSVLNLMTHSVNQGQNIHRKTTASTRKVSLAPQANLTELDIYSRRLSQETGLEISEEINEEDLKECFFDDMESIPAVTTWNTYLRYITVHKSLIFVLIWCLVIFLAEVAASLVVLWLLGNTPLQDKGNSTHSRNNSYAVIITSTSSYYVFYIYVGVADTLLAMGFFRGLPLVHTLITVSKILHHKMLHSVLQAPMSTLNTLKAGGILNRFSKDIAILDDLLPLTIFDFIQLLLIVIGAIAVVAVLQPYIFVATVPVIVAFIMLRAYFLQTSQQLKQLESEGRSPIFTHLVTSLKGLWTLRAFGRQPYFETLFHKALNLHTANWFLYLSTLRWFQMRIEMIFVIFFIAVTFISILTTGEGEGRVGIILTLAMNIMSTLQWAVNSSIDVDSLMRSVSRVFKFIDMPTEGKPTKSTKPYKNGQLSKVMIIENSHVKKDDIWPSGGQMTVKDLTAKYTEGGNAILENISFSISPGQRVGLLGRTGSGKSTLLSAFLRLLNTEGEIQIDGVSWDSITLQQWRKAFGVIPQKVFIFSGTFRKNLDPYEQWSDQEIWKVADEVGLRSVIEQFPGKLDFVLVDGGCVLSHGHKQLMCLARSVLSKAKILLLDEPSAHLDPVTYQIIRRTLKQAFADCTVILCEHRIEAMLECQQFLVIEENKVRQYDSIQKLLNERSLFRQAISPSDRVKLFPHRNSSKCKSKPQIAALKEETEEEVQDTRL

Compound	Emax [%]	EC50 [µM]
Cc1cc(N2CCCC2)ccc1NC(=O)c1c[nH]c2ccccc2c1=O [Compound 615, N-(2-methyl-4-pyrrolidin-1-yl-phenyl)-4-oxo-1H-quinoline-3-carboxamide]	> 100	–
COc1ccc(OC)c(-c2ccccc2NC(=O)c2c[nH]c3ccccc3c2=O)c1 [Compound 361, N-[2-(2,5-dimethoxyphenyl)phenyl]-4-oxo-1H-quinoline-3-carboxamide]	> 100	< 10
CCOc1ccc2[nH]cc(C(=O)Nc3cc(O)c(C(C)(C)C)cc3C(C)(C)C)c(=O)c2c1 [Compound 524, 6-ethoxy-N-(5-hydroxy-2,4-ditert-butyl-phenyl)-4-oxo-1H-quinoline-3-carboxamide]	25 to 100	–
O=C(Nc1ccc2ccccc2n1)c1c[nH]c2ccccc2c1=O [Compound 19, 4-oxo-N-(2-quinolyl)-1H-quinoline-3-carboxamide]	< 25	–
O=C(Nc1ccccc1-c1ccc(Cl)c(Cl)c1)c1c[nH]c2ccccc2c1=O [Compound 85, N-[2-(3,4-dichlorophenyl)phenyl]-4-oxo-1H-quinoline-3-carboxamide]	25 to 100	–
Cc1cc(-c2ccccc2NC(=O)c2c[nH]c3ccccc3c2=O)ccc1F [Compound 79, N-[2-(4-fluoro-3-methyl-phenyl)phenyl]-4-oxo-1H-quinoline-3-carboxamide]	25 to 100	< 10
Cc1ccccc1Oc1ccccc1NC(=O)c1c[nH]c2ccccc2c1=O [Compound 20, N-[2-(2-methylphenoxy)phenyl]-4-oxo-1H-quinoline-3-carboxamide]	25 to 100	–
Cc1cccc2[nH]cc(C(=O)Nc3ccc(N4[C@H](C)CC[C@@H]4C)cc3C(F)(F)F)c(=O)c12 [Compound 592, N-(4-((2R,5S)-2,5-dimethylpyrrolidin-1-yl)-2-(trifluoromethyl)phenyl)-5-methyl-4-oxo-1,4-dihydroquinoline-3-carboxamide]	25 to 100	–
CC(C)(C)c1cc(C(C)(C)C)c(NC(=O)c2c[nH]c3ccccc3c2=O)c(O)c1O [Compound 220, N-(2,3-dihydroxy-4,6-ditert-butyl-phenyl)-4-oxo-1H-quinoline-3-carboxamide]	25 to 100	–
O=C(Nc1ccc2[nH]ncc2c1)c1c[nH]c2ccccc2c1=O [Compound 217, N-(1H-indazol-5-yl)-4-oxo-1H-quinoline-3-carboxamide]	25 to 100	–
O=C(Nc1ccccc1-c1cc2ccccc2s1)c1c[nH]c2ccccc2c1=O [Compound 172, N-(2-(benzo[b]thiophen-2-yl)phenyl)-1,4-dihydro-4-oxoquinoline-3-carboxamide]	25 to 100	–
CC(O)c1ccc(NC(=O)c2c[nH]c3ccccc3c2=O)cc1 (stereo not shown) [Compound 450, N-[4-(1-hydroxyethyl)phenyl]-4-oxo-1H-quinoline-3-carboxamide]	25 to 100	–
Cc1cc(OC(F)(F)F)ccc1NC(=O)c1c[nH]c2ccccc2c1=O [Compound 538, N-[2-methyl-4-(trifluoromethoxy)phenyl]-4-oxo-1H-quinoline-3-carboxamide]	25 to 100	–
CCOC(=O)NC1CCCc2ccc(NC(=O)c3c[nH]c4ccccc4c3=O)cc21 (stereo not shown) [Compound 482, [7-[(4-Oxo-1H-quinolin-3-yl)carbonylamino]tetralin-1-yl]aminoformic acid ethyl ester]	25 to 100	–
Cc1cccc2[nH]cc(C(=O)Nc3cc4[nH]ccc4cc3C(C)(C)C)c(=O)c12 [Compound 565, 5-methyl-4-oxo-N-(5-tert-butyl-1H-indol-6-yl)-1H-quinoline-3-carboxamide]	25 to 100	–
O=C(Nc1cc(O)c(C23CC4CC(CC(C4)C2)C3)cc1F)c1cnc2ccccc2c1O [Compound 395, N-[4-(1-adamantyl)-2-fluoro-5-hydroxy-phenyl]-4-hydroxy-quinoline-3-carboxamide]	25 to 100	–
Cc1cc(C2CCCCC2)ccc1NC(=O)c1c[nH]c2ccccc2c1=O [Compound 647, N-(4-cyclohexyl-2-methyl-phenyl)-4-oxo-1H-quinoline-3-carboxamide]	25 to 100	–
